Assay results published in publication doi:10.1101/2023.10.03.560722, “Drug Discovery in Low Data Regimes: Leveraging a Computational Pipeline for the Discovery of Novel SARS-CoV-2 Nsp14-MTase Inhibitors” (bioRxiv, 2024).
Where two headings read alike, the source gives them in different places. Where a SMILES comes first, the peptide text is derived from it. [ ]: non-standard residue; d: D form. The star is where a group is joined. Ac5c = NC1(C(=O)O)CCCC1; Cbz = O=C(OCc1ccccc1)*

Columns and labels:
[1] = target: T1, SARS-CoV-2 nsp14 MTase (Severe acute respiratory syndrome coronavirus 2, UniProt P0DTD1); test: biochemical; format: biochemical; conditions: for IC50: nsp14 MTase activity, high-throughput screening follow-up
[2] = target: nsp14 (Severe acute respiratory syndrome coronavirus 2, UniProt P0DTD1); test: surface plasmon resonance (SPR) binding to immobilized full-length biotinylated nsp14; design: species or system SARS-CoV-2
Method: For Surface Plasmon Resonance (SPR), the full-length biotinylated nsp14 was immobilized on the flow cell of a SA sensor chip in 1x HBS-EP buffer, achieving a response of 8000 RU. The assay was performed using the same buffer but with 2% DMSO added. Single-cycle kinetics were employed with a contact time of 60 seconds and a dissociation time of 120 seconds, at a flow rate of 75 µL/min. NSC620333 was tested at a concentration of 10 µM as the highest concentration, and a dilution factor of 0.25 was used to yield five different concentrations.

[3] = tested on: SARS-CoV-2; format: cell-based; conditions: Calu-3 cells, lung epithelial SARS-CoV-2 infection model
[4] = target: T1, SARS-CoV-2 nsp14 MTase; conditions: inhibition of nsp14 methyltransferase activity; cited from earlier work
[5] = compound 100µM, replicate experiment 1
[6] = compound 100µM, replicate experiment 2

Row | SMILES | nsp14 Inhibition % (100µM) Exp 1 [1, 5] | nsp14 Inhibition % (100µM) Exp 2 [1, 6] | further results
1 | O=C(O)c1ccc(C(=O)c2ccc(C(=O)c3ccc(C(=O)O)cc3)cc2)cc1 [NSC2269] | 64% | 60% | IC50 ([1]; read-out: IC50): 27 µM
2 | O=C(CN1CCOCC1)C(O)C(O)C(O)CO (stereo not shown) [NSC4348] | 73% | 61% | IC50 ([1]; read-out: IC50): 34 µM
3 | O=C(O)c1nc(N=Nc2ccc(S(=O)(=O)O)cc2)[nH]c1C(=O)O [NSC4624] | 65% | 47% | –
4 | O=C(N/N=C/[C@H](O)[C@H]1OC(=O)[C@@H](O)[C@H]1O)c1ccncc1 [NSC27605] | 26% | 10% | –
5 | OCC(O)C(O)C(O)C(O)c1nc2ccccc2s1 (stereo not shown) [NSC34443] | 86% | 81% | IC50 ([1]; read-out: IC50): 57 µM
6 | O=C(NNCNNC(=O)c1ccncc1)c1ccncc1 [NSC39302] | 7% | −2% | –
7 | Nc1nc2nn(-c3ccc(C(=O)NC(CCC(=O)O)C(=O)O)cc3)nc2c(=O)[nH]1 (stereo not shown) [NSC44037] | 15% | 9% | –
8 | OCCNc1ncnc2c1ncn2[C@@H]1O[C@H](CO)[C@@H](O)[C@H]1O [NSC54251] | 4% | −4% | –
9 | O=C1C2C3C=CC(O3)C2C(=O)N1/N=C/C(O)C(O)C(O)C(O)CO (stereo not shown) [NSC60360] | 4% | −4% | –
10 | O=c1cc(-c2ccc(O)cc2)oc2c(O)c(O)c(O)c(O)c12 [NSC76988] | – | – | IC50 ([1]; IC50 (µM)): 6 µM; inhibition at 100 µM ([1]; compound 100µM, replicate experiment 1, read-out: nsp14 Inhibition % (100µM) Exp 1): 100%; inhibition at 100 µM ([1]; compound 100µM, replicate experiment 2, read-out: nsp14 Inhibition % (100µM) Exp 2): 99%; direct binding to nsp14 [2]: no direct binding was detected; anti-SARS-CoV-2 activity [3]: demonstrated anti-SARS-CoV-2 activity
11 | O=C1C=C(O)C(=C/C=C/C=C/c2c(O)cc(O)cc2O)C(O)=C1 [NSC77131] | 99% | 99% | IC50 ([1]; read-out: IC50): 9 µM
12 | Nc1ncnc2c1ncn2[C@H]1C[C@H](O)[C@@H](COP(=O)(O)O)O1 [NSC77680] | 13% | 7% | –
13 | O=C(O)CNC(=O)C1(NC(=O)CNC(=O)OCc2ccccc2)CCCC1 [NSC80136] (Cbz-Gly-[Ac5c]-Gly-OH) | 13% | 2% | –
14 | O=C(CCCCn1ccc(=O)[nH]c1=O)Nc1ccc(C(=O)O)c(O)c1 [NSC92432] | 6% | −1% | –
15 | CN(CC(O)C(O)C(O)C(O)CO)CN1C(=O)C(=O)c2ccccc21 (stereo not shown) [NSC99790] | 46% | 36% | –
16 | O=S(=O)(O)c1cc(Cl)cc(N=Nc2ccc(O)cc2O)c1O [NSC102798] | 77% | 74% | –
17 | OC1COC(n2cnc3c(=S)nc[nH]c32)C(O)C1O (stereo not shown) [NSC107661] | 18% | 7% | –
18 | Nc1ncnc2c1ncn2C1OC(CO)C(NC(=O)C(N)Cc2ccccc2)C1O (stereo not shown) [NSC114010] | 11% | −3% | –
19 | NC(CCC(=O)NC(CSCc1ccc(F)cc1)C(=O)NCC(=O)O)C(=O)O (stereo not shown) [NSC131119] | 8% | 0% | –
20 | NC(CCCNc1nc(O)c(-c2ccccc2)c(=O)[nH]1)C(=O)O (stereo not shown) [NSC132916] | −1% | −3% | –

Row | SMILES | nsp14 Inhibition % (100µM) Exp 1 [1, 5] | nsp14 Inhibition % (100µM) Exp 2 [1, 6] | further results
21 | O=C(O)/C=C\C(=O)NCC1CCC(CNC(=O)/C=C\C(=O)O)CC1 (stereo not shown) [NSC137050] | 6% | −1% | –
22 | NS(=O)(=O)c1ccc(NC2OCC(O)C(O)C2O)cc1 (stereo not shown) [NSC158437] | 5% | 1% | –
23 | Nc1ncnc2c1ncn2C1OC(C(=O)NCC(=O)O)C(O)C1O (stereo not shown) [NSC163444] | 9% | 5% | –
24 | O=C(O)c1cc(=O)n(CCCCCCn2c(=O)cc(C(=O)O)[nH]c2=O)c(=O)[nH]1 [NSC232469] | 7% | −7% | –
25 | O=P(O)(O)OC[C@H]1O[C@@H](n2cnc3c(NCc4ccccc4)ncnc32)[C@H](O)[C@@H]1O [NSC255523] | 59% | 33% | –
26 | CC(C)=CCNc1ncnc2c1ncn2[C@@H]1O[C@H](COP(=O)(O)O)[C@@H](O)[C@H]1O [NSC268226] | 9% | 0% | –
27 | Cn1c(=O)c2c(ncn2CCCNCC(O)c2ccc(O)c(CO)c2)n(C)c1=O (stereo not shown) [NSC293892] | 15% | 3% | –
28 | CC(CCc1ccc2c(c1)OCO2)NCC(O)c1ccc(O)c(C(N)=O)c1 (stereo not shown) [NSC313453] | – | – | inhibition at 100 µM ([1]; read-out: nsp14 Inhibition % (100µM) Exp 1): 3%; inhibition at 100 µM ([1]; read-out: nsp14 Inhibition % (100µM) Exp 2): -5%
29 | O=C(O)CCC(=O)NCC1CCCC(CNC(=O)CCC(=O)O)C1 (stereo not shown) [NSC317609] | 7% | 1% | –
30 | O=P(O)(O)OC1OC(n2cnc3c(NCc4ccc(F)cc4)ncnc32)C(O)C1O (stereo not shown) [NSC330685] | 4% | 2% | –
31 | O=C(O)C(Cc1ccc(O)cc1)NC(c1ccccc1)P(=O)(O)O (stereo not shown) [NSC377438] | 8% | −3% | –
32 | NC(CSCCSCCSCC(N)C(=O)O)C(=O)O (stereo not shown) [NSC400718] | 89% | 88% | IC50 ([1]; read-out: IC50): 38 µM
33 | O=S(=O)(O)c1ccc(N=Nc2c(O)ccc3n[nH]nc23)cc1 [NSC400937] | 73% | 66% | –
34 | O=c1ccn(C2OC(C(O)CO)C(O)C2O)c(=O)[nH]1 (stereo not shown) [NSC613624] | 4% | −1% | –
35 | COc1cc(N=Nc2ccccc2C(=O)O)cc(/C=N/NNC(N)=S)c1O [NSC630814] | 84% | 82% | –
36 | O=C1NC(=O)C(C(=O)C(=O)Nc2cccc(C(F)(F)F)c2)C(=O)N1 [NSC646375] | 26% | 20% | –
37 | NC(CCCC(N)P(=O)(O)c1ccccc1)P(=O)(O)c1ccccc1 (stereo not shown) [NSC655184] | 7% | −11% | –
38 | O=C(O)c1ccc(Nc2nc3ccccc3nc2C(=O)O)cc1 [NSC670682] | 50% | 54% | –
39 | N#Cc1cn([C@@H]2O[C@H](CSCC[C@H](N)C(=O)O)C(O)[C@@H]2O)c2ncnc(N)c12 (stereo partly shown) [SS148] | – | – | IC50 [4]: 0.07 ± 0.006 µM
